Legend:
[1] = Sealed storage stability, other studies, 36 months; type: physicochemical; details: 25±2° C., for 36 months; stable = absorbs less than 2 wt % water and impurity content of less than 2 wt %
Text: (§1) “Sealed storage stability” refers to the stability of a compound that is enclosed within two sealed polyethylene bags with a desiccant material placed between the two polyethylene bags and the two sealed polyethylene bags are enclosed within a sealed one-layer aluminum bag.
Stability is defined as the sample of crystalline 4-((L-valyl)oxy)butanoic acid absorbs less than 2 wt % water and an impurity content of less than 2 wt % for a period of time under the indicated sealed storage conditions.

[2] = Sealed storage stability study (ICH Q1A (R2)), four storage conditions, 3- and 6-month timepoints; type: physicochemical; parameters: key to Crystalline Form: C = Conforms; N/A = Not Applicable; details: for Crystalline Form: XRPD; for Crystalline Form / Assay / Total Impurities / Water Content: sealed storage
Text: as §1
Crystalline 4-((L-valyl)oxy)butanoic acid was packaged in double low-density polyethylene (LDPE) zipper bags and sealed. The packaged samples were then placed within an aluminum foil outer bag (polyethylene, polyethylene terephthalate three-layer composite) and sealed. The fully packaged samples were placed in stability chambers for the duration of the sealed storage stability study.
Sealed storage stability studies were carried out under four sets of conditions external to the packaged crystalline 4-((L-valyl)oxy)butanoic acid: • 1. Accelerated conditions ([…], 75±5% RH). • 2. Intermediate storage condition ([…], 65±5% RH). • 3. Long-term storage condition (25±2° C., […]). • 4. 2-8° C. conditions.
The sealed storage stability of crystalline 4-((L-valyl)oxy)butanoic acid (1) was tested according to the International Council for Harmonization of Technical Requirements for Pharmaceuticals for Human Use (ICH) document Q1A (R2) “Stability Testing of New Drug Substances and Products.” Accordingly, samples were pulled at 3- and 6-month timepoints. The assay percentage of the crystalline 4-((L-valyl)oxy)butanoic acid was determined by electrochemical titration using acetic acid as the solvent and perchloric acid as the titrant. Water content was tested by Karl Fischer titration (Karl Fisher Titrator: Mettler V30). Impurities were measured by HPLC (HPLC Instrument: Waters Arc HPLC system with CAD; Column: Waters Atlantis T3, 4.6×150 mm, 3 μm). The samples were analyzed by XRPD analysis (XRPD Instrument: Bruker D8 advance). The sealed storage stability results of crystalline 4-((L-valyl)oxy)butanoic acid stored under the four storage conditions are summarized in Table 2.

[3] = up to 6 months under all sealed storage conditions

CC(C)[C@H](N)C(=O)OCCCC(=O)O [4-((L-valyl)oxy)butanoic acid]
Sealed storage stability [1]: sealed storage stable | Crystalline Form ([2]; 2-8° C., 6 M): C | Crystalline Form ([2]; 2-8° C., D 0): C | Crystalline Form ([2]; 25 ± 2° C., 60 ± 5% RH, 6 M): C | Crystalline Form ([2]; 25 ± 2° C., 60 ± 5% RH, D 0): C | Crystalline Form ([2]; 30 ± 2° C., 65 ± 5% RH, 3 M): C | Crystalline Form ([2]; 30 ± 2° C., 65 ± 5% RH, 6 M): C | Crystalline Form ([2]; 30 ± 2° C., 65 ± 5% RH, D 0): C | Crystalline Form ([2]; 40 ± 2° C., 75 ± 5% RH, 6 M): C | Crystalline Form ([2]; 40 ± 2° C., 75 ± 5% RH, D 0): C | Assay ([2]; 2-8° C., 3 M): 98.8 wt % | Total Impurities ([2]; 2-8° C., 3 M): 0.4 wt % | Water Content ([2]; 2-8° C., 3 M): 0.2 wt % | Assay ([2]; 2-8° C., 6 M): 99.8 wt % | Total Impurities ([2]; 2-8° C., 6 M): 0.2 wt % | Water Content ([2]; 2-8° C., 6 M): 0.3 wt % | Assay ([2]; 2-8° C., D 0): 99.4 wt % | Total Impurities ([2]; 2-8° C., D 0): 0.3 wt % | Water Content ([2]; 2-8° C., D 0): 0.1 wt % | Assay ([2]; 25 ± 2° C., 60 ± 5% RH, 3 M): 98.8 wt % | Total Impurities ([2]; 25 ± 2° C., 60 ± 5% RH, 3 M): 0.5 wt % | Water Content ([2]; 25 ± 2° C., 60 ± 5% RH, 3 M): 0.2 wt % | Assay ([2]; 25 ± 2° C., 60 ± 5% RH, 6 M): 99.3 wt % | Total Impurities ([2]; 25 ± 2° C., 60 ± 5% RH, 6 M): 0.4 wt % | Water Content ([2]; 25 ± 2° C., 60 ± 5% RH, 6 M): 0.3 wt % | Assay ([2]; 25 ± 2° C., 60 ± 5% RH, D 0): 99.4 wt % | Total Impurities ([2]; 25 ± 2° C., 60 ± 5% RH, D 0): 0.3 wt % | Water Content ([2]; 25 ± 2° C., 60 ± 5% RH, D 0): 0.1 wt % | Assay ([2]; 30 ± 2° C., 65 ± 5% RH, 3 M): 99.9 wt % | Total Impurities ([2]; 30 ± 2° C., 65 ± 5% RH, 3 M): 0.4 wt % | Water Content ([2]; 30 ± 2° C., 65 ± 5% RH, 3 M): 0.4 wt % | Assay ([2]; 30 ± 2° C., 65 ± 5% RH, 6 M): 99.3 wt % | Total Impurities ([2]; 30 ± 2° C., 65 ± 5% RH, 6 M): 0.4 wt % | Water Content ([2]; 30 ± 2° C., 65 ± 5% RH, 6 M): 0.1 wt % | Assay ([2]; 30 ± 2° C., 65 ± 5% RH, D 0): 99.4 wt % | Total Impurities ([2]; 30 ± 2° C., 65 ± 5% RH, D 0): 0.3 wt % | Water Content ([2]; 30 ± 2° C., 65 ± 5% RH, D 0): 0.1 wt % | Assay ([2]; 40 ± 2° C., 75 ± 5% RH, 3 M): 98.8 wt % | Total Impurities ([2]; 40 ± 2° C., 75 ± 5% RH, 3 M): 0.6 wt % | Water Content ([2]; 40 ± 2° C., 75 ± 5% RH, 3 M): 0.1 wt % | Assay ([2]; 40 ± 2° C., 75 ± 5% RH, 6 M): 99.3 wt % | Total Impurities ([2]; 40 ± 2° C., 75 ± 5% RH, 6 M): 0.7 wt % | Water Content ([2]; 40 ± 2° C., 75 ± 5% RH, 6 M): 0.3 wt % | Assay ([2]; 40 ± 2° C., 75 ± 5% RH, D 0): 99.4 wt % | Total Impurities ([2]; 40 ± 2° C., 75 ± 5% RH, D 0): 0.3 wt % | Water Content ([2]; 40 ± 2° C., 75 ± 5% RH, D 0): 0.1 wt % | Chemical stability of the crystalline sample [2, 3]: chemically stable | Sealed storage stability [2, 3]: stable
